Holding throughout (format): functional, cell-based
For one test, the system named is MGC-803. The experiment in a line: Cytotoxicity against human MGC803 cells assessed as reduction in cell viability after 72 hrs by MTT assay. Particulars: MGC-803, 72 h. On the technique in general: Tetrazolium dyes change colour on reduction, which living cells bring about.
A further test deals with MCF7. The experiment in a line: Cytotoxicity against human MCF7 cells assessed as reduction in cell viability after 72 hrs by MTT assay. The settings on record: MCF7, 72 h.
The test system of another test is MDA-MB-231. The experiment in a line: Cytotoxicity against human MDA-MB-231 cells assessed as reduction in cell viability after 72 hrs by MTT assay. The settings on record: MDA-MB-231, 72 h.
The subject of the next test is PC-3. The experiment in a line: Cytotoxicity against human PC3 cells assessed as reduction in cell viability after 72 hrs by MTT assay. Particulars: PC-3, 72 h.
Another test relates to HGC-27. The experiment in a line: Cytotoxicity against human HGC27 cells assessed as reduction in cell viability after 72 hrs by MTT assay. Particulars: HGC-27, 72 h.

Here are results for 26 compounds from ChEMBL document CHEMBL4393664, “2,4-Disubstituted quinazolines targeting breast cancer cells via EGFR-PI3K” (Eur J Med Chem, 2019).

Each structure is given as a SMILES string.

For orientation: IC50 means the midpoint of a concentration-inhibition curve. `CCCCCCCCCCCCNc1nc(SCc2ccc(C(F)(F)F)cc2)nc2ccccc12`: the concentration for half-maximal inhibition (IC50) in the test on MGC-803 is greater than 50 µM; in the test on MCF7 it was greater than 50 µM; in the test on MDA-MB-231 it was greater than 50 µM; in the test with PC-3, 26 µM; in the test on HGC-27 it was 38.7 µM.
For the compound `O=[N+]([O-])c1cccc(Nc2nc(SCc3ccc(C(F)(F)F)cc3)nc3ccccc23)c1`, the IC50 is greater than 50 µM in the test with MGC-803; greater than 50 µM in the test on MCF7; 31.5 µM in the test with MDA-MB-231; 13.5 µM in the test on PC-3; greater than 50 µM with HGC-27.
As to `FC(F)(F)c1ccc(CSc2nc(Nc3cccc(Cl)c3)c3ccccc3n2)cc1`, the IC50 in the test on MGC-803 was 14.6 µM; in the test with MCF7 it was 25.1 µM; in the test on MDA-MB-231, 18 µM; in the test on PC-3, 13.4 µM; with HGC-27 it was 19.9 µM.
Regarding `CCOc1ccc(Nc2nc(SCc3ccc(C(F)(F)F)cc3)nc3ccccc23)cc1`, the IC50 in the test on MGC-803 is 37 µM; in the test on MCF7, greater than 50 µM; in the test on MDA-MB-231, 23 µM; in the test on PC-3, 32 µM; in the test with HGC-27, 33 µM.
Consider `Cc1ccc(Nc2nc(SCc3ccc(C(F)(F)F)cc3)nc3ccccc23)cc1`, for which the half-inhibitory concentration (IC50) in the test with MGC-803 was 36.1 µM; with MCF7, greater than 50 µM; in the test on MDA-MB-231 it was greater than 50 µM; in the test with PC-3 it was 21.1 µM; in the test with HGC-27 it was 34.6 µM.
Regarding `COc1ccc(Nc2nc(SCc3ccc(C(F)(F)F)cc3)nc3ccccc23)c(OC)c1`, the IC50 was greater than 50 µM in the test with MGC-803; greater than 50 µM in the test on MCF7; greater than 50 µM with MDA-MB-231; 32.5 µM in the test with PC-3; greater than 50 µM with HGC-27.
Consider `FC(F)(F)c1ccc(CSc2nc(Nc3cccc(Br)c3)c3ccccc3n2)cc1`, for which the IC50 turned out to be 23.7 µM in the test on MGC-803; 25.6 µM with MCF7; 22.1 µM with MDA-MB-231; 8.68 µM with PC-3; 18.3 µM with HGC-27.
Take `COc1cc(Nc2nc(SCc3ccc(C(F)(F)F)cc3)nc3ccccc23)cc(OC)c1OC`: the IC50 in the test with MGC-803 is 8.24 µM; in the test on MCF7, greater than 50 µM; in the test on MDA-MB-231 it was greater than 50 µM; in the test on PC-3 it was 7.37 µM; in the test with HGC-27 it was 14 µM.
In the case of `CCCCCCCCCCCCCCNc1nc(SCc2ccc(C(F)(F)F)cc2)nc2ccccc12`, the concentration for half-maximal inhibition (IC50) in the test on MGC-803, in the test with MCF7, in the test with MDA-MB-231, in the test with PC-3 and in the test on HGC-27 was greater than 50 µM each time.
As to `FC(F)(F)c1ccc(CSc2nc(Nc3ccccc3)c3ccccc3n2)cc1`, the concentration for half-maximal inhibition (IC50) in the test on MGC-803 worked out at 22.2 µM; in the test with MCF7 it was 44 µM; in the test with MDA-MB-231, 18.4 µM; with PC-3 it was 20 µM; in the test with HGC-27, 26.4 µM.
For the compound `CCOc1ccccc1Nc1nc(SCc2ccc(C(F)(F)F)cc2)nc2ccccc12`, the IC50 in the test on MGC-803 was greater than 50 µM; with MCF7, greater than 50 µM; in the test on MDA-MB-231 it was greater than 50 µM; with PC-3, 26.2 µM; with HGC-27 it was greater than 50 µM.
As to `O=[N+]([O-])c1ccc(Nc2nc(SCc3ccc(C(F)(F)F)cc3)nc3ccccc23)cc1`, the IC50 turned out to be 8.17 µM with MGC-803; 17.9 µM with MCF7; 8.67 µM with MDA-MB-231; 7.9 µM in the test with PC-3; 16.6 µM with HGC-27.
Taken in the same sequence, the figures for `FC(F)(F)c1ccc(CSc2nc(N3CCCCC3)c3ccccc3n2)cc1` were 18.6 µM, greater than 50 µM, 28.4 µM, 25.5 µM and greater than 50 µM.
Regarding `Cc1ccccc1Nc1nc(SCc2ccc(C(F)(F)F)cc2)nc2ccccc12`, the IC50 in the test on MGC-803 worked out at 24.4 µM; in the test with MCF7, 37.5 µM; in the test on MDA-MB-231, 27.1 µM; in the test with PC-3, 36.9 µM; in the test with HGC-27 it was 27.5 µM.
For `COc1cc(Nc2nc(SCc3ccc(C(F)(F)F)cc3)nc3ccccc23)cc(OC)c1`, the IC50 in the test on MGC-803 is 8.58 µM; in the test on MCF7, 6.99 µM; in the test on MDA-MB-231, 16.1 µM; with PC-3, greater than 50 µM; with HGC-27, greater than 50 µM.
Turning to `CCCCCCNc1nc(SCc2ccc(C(F)(F)F)cc2)nc2ccccc12`, the half-inhibitory concentration (IC50) was 13.1 µM in the test with MGC-803; 24.3 µM in the test on MCF7; 20.2 µM in the test on MDA-MB-231; 19 µM with PC-3; 23.9 µM in the test on HGC-27.
As for `Fc1ccc(Nc2nc(SCc3ccc(C(F)(F)F)cc3)nc3ccccc23)cc1Cl`, the IC50 in the test on MGC-803 is greater than 50 µM; in the test on MCF7, 23 µM; with MDA-MB-231, 14.5 µM; in the test with PC-3, 18.6 µM; in the test on HGC-27, 14.7 µM.
Taken in the same sequence, the figures for `CCCCCCCCNc1nc(SCc2ccc(C(F)(F)F)cc2)nc2ccccc12` were 12.6 µM, 26.1 µM, 22.3 µM, 10.5 µM and 13.4 µM.
Consider `COc1ccccc1Nc1nc(SCc2ccc(C(F)(F)F)cc2)nc2ccccc12`, for which the IC50 with MGC-803 was greater than 50 µM; in the test on MCF7, greater than 50 µM; with MDA-MB-231, greater than 50 µM; with PC-3 it was 14.1 µM; in the test on HGC-27, greater than 50 µM.
For the compound `FC(F)(F)c1ccc(CSc2nc(Nc3ccc(Cl)cc3)c3ccccc3n2)cc1`, the half-inhibitory concentration (IC50) in the test with MGC-803 turned out to be 16.8 µM; in the test with MCF7, 21.5 µM; in the test on MDA-MB-231, 15.1 µM; in the test on PC-3, 7.11 µM; with HGC-27, 14.1 µM.
With `FC(F)(F)c1ccc(CSc2nc(Nc3cccc(C(F)(F)F)c3)c3ccccc3n2)cc1`, the IC50 in the test on MGC-803 was found to be 15.1 µM; with MCF7, 15.3 µM; in the test with MDA-MB-231, 11.1 µM; with PC-3 it was 12.9 µM; with HGC-27, 11.7 µM.
`FC(F)(F)c1ccc(CSc2nc(Nc3ccccc3C(F)(F)F)c3ccccc3n2)cc1`: the IC50 with MGC-803 was greater than 50 µM; in the test with MCF7, greater than 50 µM; in the test on MDA-MB-231, greater than 50 µM; in the test with PC-3, 34.8 µM; in the test on HGC-27 it was greater than 50 µM.
As for `COc1ccc(Nc2nc(SCc3ccc(C(F)(F)F)cc3)nc3ccccc23)cc1OC`, the IC50 is 16.3 µM in the test on MGC-803; greater than 50 µM in the test with MCF7; 18.9 µM in the test on MDA-MB-231; 14.1 µM in the test on PC-3; 17.9 µM with HGC-27.
In the case of `Fc1ccc(Nc2nc(SCc3ccc(C(F)(F)F)cc3)nc3ccccc23)cc1`, the IC50 in the test with MGC-803 worked out at 9.62 µM; in the test on MCF7, 36.3 µM; in the test on MDA-MB-231 it was 15 µM; in the test on PC-3, 7.07 µM; in the test with HGC-27, 19.5 µM.
The matching figures for `COc1ccc(Nc2nc(SCc3ccc(C(F)(F)F)cc3)nc3ccccc23)cc1`: 13.8 µM, 47.2 µM, 15.7 µM, 16.7 µM and 23.5 µM.
The matching figures for `FC(F)(F)c1ccc(CSc2nc(Nc3ccccc3Cl)c3ccccc3n2)cc1`: greater than 50 µM, greater than 50 µM, greater than 50 µM, 20.4 µM and greater than 50 µM.
